Consider 28 molecules from US20130172345A1, “1-ACYL-4-(PHENOXY, BENZYLOXY, OR PHENYLAMINO)-1,2,3,4-TETRAHYDROQUINOLINE DERIVATIVES” (KOWA COMPANY, LTD., priority 2007, published 2013).

Structures can show the parent of a compound that is named as a salt.

Experiment [1] concerns HepG2 cells originating from human liver cancer. The experiment in a line: EPO production in HepG2 cells (EPO ELISA of culture supernatant, 4% oxygen, 48 hrs). The class given is cell-based. The following applies: test compound 3 μM, oxygen 4%, non-stimulated state = 100%, read-out: EPO production amount, % of control (3 μM). As to the method: HepG2 cells originating from human liver cancer were seeded at a density of 1×10^4 cells per well on a 24-well plate by using minimum essential medium (MEM, manufactured by Sigma) comprising 10% bovine fetal serum. Next day, the medium was exchanged with Dulbecco's modified eagle medium (DMEM, manufactured by Sigma) comprising 10% bovine fetal serum lacking phenol red. Then, the test compound dissolved in DMSO was added thereto to obtain the final concentration of 3 μM or 10 μM while having 400 μl of the medium per well. The cells were incubated for 48 hrs in a CO2 incubator which had been adjusted to have oxygen concentration of 4%, followed by collecting the culture supernatant. The EPO concentration in the culture supernatant was immediately measured by using EPO ELISA kit (manufactured by Roche Diagnostics K.K.). Specific procedures were carried out according to the manufacturer's protocol included in the kit.
When EPO production amount in non-stimulated state, i.e., without addition of any compound, was 100%, the EPO production amount induced by each compound was calculated (% of control).

The subject of experiment [2] is K562 cells, human proerythroblast cells. The experiment in a line: Hemoglobin production in K562 cells (fluorescence of the porphyrin ring). The following applies: 144 h, test compound 6 μM, 3+3 days, non-stimulated state = 100%, read-out: production amount of hemoglobin, % of control (6 μM). The class given is cell-based. As to the method:
K562 cells (obtained from ATCC), which are human proerythroblast cells, were seeded at a density of 1×10^5 cells/1 mL on a 24-well plate by using complete medium (RPMI-1640 medium comprising 10% bovine fetal serum). After adding the test compound having 1000× concentration (1 μL), the cells were incubated for three days in a CO2 incubator (37° C., 5% CO2). After exchanging the medium, the cells were further incubated for three days. Then, the cells were collected and counted. After adjusting them to have 3×10^5 cells, the amount of hemoglobin produced in the cells was determined by measuring fluorescence of the porphyrin ring. Specifically, the cells which had been collected by centrifugation were suspended in 2 M oxalic acid solution (500 μL) and boiled for 30 minutes under heating. After cooling the cells, the fluorescence intensity was measured by Fluorescence micro plate reader (Spectra MAX GeminiEM, manufactured by Molecular Devices Corporation) ([…]). When hemoglobin amount in non-stimulated state, i.e., without addition of any compound, was 100%, the production amount of hemoglobin induced by each compound was calculated (% of control).

As to `CC(=O)N1c2ccc(F)cc2[C@H](Oc2ccc(F)cc2)C[C@@H]1C` (relative stereo) [Compound 34, cis-1-acetyl-4-(4-fluorophenoxy)-6-fluoro-2-methyl-1,2,3,4-tetrahydroquinoline], the activity at 3 µM in experiment [1] came to 288%. Besides, the activity at 6 µM in experiment [2] came out at 257%.

On to `CC(=O)N1c2ccccc2[C@H](OCc2ccccc2)C[C@@H]1C` (relative stereo) [Compound 36, cis-1-acetyl-2-methyl-4-benzyloxy-1,2,3,4-tetrahydroquinoline], for which, in experiment [1], the activity at 3 µM amounted to 114%. In addition, the activity at 6 µM in experiment [2] amounted to 83%.

For `CCOC(=O)c1ccc2c(c1)[C@H](Nc1ccc(Cl)cc1)C[C@H](C)N2C(C)=O` (relative stereo) [Compound 41, ethyl cis-1-acetyl-4-[(4-chlorophenyl)amino]-2-methyl-1,2,3,4-tetrahydroquinoline-6-carboxylate], the activity at 3 µM in experiment [1] was 119%. In experiment [2], the activity at 6 µM is 529%.

For the molecule `CC(=O)N1c2ccc(C(N)=O)cc2[C@H](Oc2ccc(F)cc2)C[C@@H]1C` (relative stereo) [Compound 54, cis-1-acetyl-4-(4-fluorophenoxy)-2-methyl-1,2,3,4-tetrahydroquinoline-6-carboxamide], the activity at 3 µM in experiment [1] is 148%. Also, the activity at 6 µM in experiment [2] was found to be 186%.

For the molecule `CC(=O)N1c2cc(F)ccc2[C@H](Oc2ccc(F)cc2)C[C@@H]1C` (relative stereo) [Compound 56, cis-1-acetyl-7-fluoro-4-(4-fluorophenoxy)-2-methyl-1,2,3,4-tetrahydroquinoline], the activity at 3 µM in experiment [1] came out at 213%. The activity at 6 µM in experiment [2] amounted to 119%.

As to `CC(=O)N1c2ccccc2[C@H](Oc2ccc(O)cc2)C[C@@H]1C` (relative stereo) [Compound 57, cis-1-acetyl-4-(4-hydroxyphenoxy)-2-methyl-1,2,3,4-tetrahydroquinoline], the activity at 3 µM in experiment [1] came to 251%. For the same molecule, the activity at 6 µM in experiment [2] turned out to be 221%.

For the molecule `CC(=O)N1c2ccccc2[C@H](Oc2cc(F)cc(F)c2)C[C@@H]1C` (relative stereo) [Compound 62, cis-1-acetyl-4-(3,5-difluorophenoxy)-2-methyl-1,2,3,4-tetrahydroquinoline], in experiment [1], the activity at 3 µM is 193%. The activity at 6 µM in experiment [2] was 168%.

Take `CC(=O)N1CCN(c2ccc(N[C@@H]3C[C@H](C)N(C(C)=O)c4ccccc43)cc2)CC1` (relative stereo) [Compound 77, cis-1-acetyl-4-{[4-(4-acetylpiperazinyl)phenyl]amino}-2-methyl-1,2,3,4-tetrahydroquinoline]: the activity at 3 µM in experiment [1] is 221%. Also, in experiment [2], the activity at 6 µM was determined as 120%.

In the case of `CC(=O)N1c2ccccc2[C@H](Nc2ccc(N3CCN(S(C)(=O)=O)CC3)cc2)C[C@@H]1C` (relative stereo) [Compound 78, cis-1-acetyl-4-{[4-(4-methanesulfonylpiperazinyl)phenyl]amino}-2-methyl-1,2,3,4-tetrahydroquinoline], in experiment [1], the activity at 3 µM turned out to be 217%. In addition, the activity at 6 µM in experiment [2] worked out at 210%.

Take `CC(=O)N1CCN(c2ccc3c(c2)[C@H](Nc2ccc(Cl)cc2)C[C@H](C)N3C(C)=O)CC1` (relative stereo) [Compound 79, cis-1-acetyl-6-[(4-acetyl)piperazino]-4-[(4-chlorophenyl)amino]-2-methyl-1,2,3,4-tetrahydroquinoline]: the activity at 3 µM in experiment [1] was 476%. Further, in experiment [2], the activity at 6 µM stood at 186%.

Turning to `CC(=O)N1c2ccc(C(N)=O)cc2[C@H](Nc2ccc(CC(=O)O)cc2)C[C@@H]1C` (relative stereo) [Compound 105, cis-1-acetyl-4-[(4-carboxymethylphenyl)amino]-2-methyl-1,2,3,4-tetrahydroquinoline-6-carboxamide], the activity at 3 µM in experiment [1] stood at 245%. For the same molecule, the activity at 6 µM in experiment [2] was determined as 358%.

As for `CC(=O)N1c2ccc(CO)cc2[C@H](Nc2ccc(Cl)cc2)C[C@@H]1C` (relative stereo) [Compound 121, cis-1-acetyl-4-[(4-chlorophenyl)amino]-6-hydroxymethyl-2-methyl-1,2,3,4-tetrahydroquinoline], the activity at 3 µM in experiment [1] was determined as 222%. The activity at 6 µM in experiment [2] amounted to 149%.

On to `CC(=O)N1c2ccccc2C(Nc2ccccc2)CC1C` (centres unmarked) [Compound 1, 1-acetyl-2-methyl-4-phenylamino-1,2,3,4-tetrahydroquinoline], for which, in experiment [1], the activity at 3 µM came to 235%. For the same molecule, in experiment [2], the activity at 6 µM worked out at 575%.

For the molecule `CCC(=O)N1c2ccccc2C(Nc2ccccc2)CC1C` (centres unmarked) [Compound 3, 2-methyl-4-phenylamino-1-propionyl-1,2,3,4-tetrahydroquinoline], the activity at 3 µM in experiment [1] is 187%. Further, the activity at 6 µM in experiment [2] is 912%.

As to `CC(=O)N1c2ccc(F)cc2C(Nc2ccc(F)cc2)CC1C` (centres unmarked) [Compound 5, 1-acetyl-6-fluoro-4-[(4-fluorophenyl)amino]-2-methyl-1,2,3,4-tetrahydroquinoline], in experiment [1], the activity at 3 µM is 205%. In addition, in experiment [2], the activity at 6 µM was 245%.

Regarding `CC(=O)N1c2ccccc2C(Nc2ccc(Cl)cc2)CC1C` (centres unmarked) [Compound 8, 1-acetyl-4-[(4-chlorophenyl)amino]-2-methyl-1,2,3,4-tetrahydroquinoline], in experiment [1], the activity at 3 µM was found to be 248%. The activity at 6 µM in experiment [2] came out at 412%.

For the molecule `CC(=O)N1c2ccccc2C(Nc2ccc(C#N)cc2)CC1C` (centres unmarked) [Compound 9, 1-acetyl-4-[(4-cyanophenyl)amino]-2-methyl-1,2,3,4-tetrahydroquinoline], the activity at 3 µM in experiment [1] came out at 405%. For the same molecule, in experiment [2], the activity at 6 µM was determined as 406%.

On to `COc1ccc(NC2CC(C)N(C(C)=O)c3ccccc32)cc1` (centres unmarked) [Compound 10, 1-acetyl-4-[(4-methoxyphenyl)amino]-2-methyl-1,2,3,4-tetrahydroquinoline], for which the activity at 3 µM in experiment [1] stood at 172%. Besides, the activity at 6 µM in experiment [2] stood at 409%.

For `COc1cccc(NC2CC(C)N(C(C)=O)c3ccccc32)c1` (centres unmarked) [Compound 11, 1-acetyl-4-[(3-methoxyphenyl)amino]-2-methyl-1,2,3,4-tetrahydroquinoline], in experiment [1], the activity at 3 µM came out at 163%. For the same molecule, the activity at 6 µM in experiment [2] was 361%.

On to `COc1ccccc1NC1CC(C)N(C(C)=O)c2ccccc21` (centres unmarked) [Compound 12, 1-acetyl-4-[(2-methoxyphenyl)amino]-2-methyl-1,2,3,4-tetrahydroquinoline], for which the activity at 3 µM in experiment [1] worked out at 197%. For the same molecule, the activity at 6 µM in experiment [2] stood at 398%.

`CC(=O)N1c2ccc(Br)cc2C(Nc2ccccc2)CC1C` (centres unmarked) [Compound 13, 1-acetyl-6-bromo-2-methyl-4-phenylamino-1,2,3,4-tetrahydroquinoline]: in experiment [1], the activity at 3 µM was determined as 229%. In addition, the activity at 6 µM in experiment [2] was found to be 365%.

For the molecule `CC(=O)N1c2ccc(C#N)cc2C(Nc2ccccc2)CC1C` (centres unmarked) [Compound 14, 1-acetyl-6-cyano-2-methyl-4-phenylamino-1,2,3,4-tetrahydroquinoline], the activity at 3 µM in experiment [1] was found to be 257%. In experiment [2], the activity at 6 µM was 440%.

For `CC(=O)N1c2ccccc2C(Nc2ccc(F)cc2)CC1C` (centres unmarked) [Compound 15, 1-acetyl-4-[(4-fluorophenyl)amino]-2-methyl-1,2,3,4-tetrahydroquinoline], the activity at 3 µM in experiment [1] amounted to 348%. Further, the activity at 6 µM in experiment [2] worked out at 409%.

With `CC(=O)N1c2ccccc2C(Nc2cccc(F)c2)CC1C` (centres unmarked) [Compound 16, 1-acetyl-4-[(3-fluorophenyl)amino]-2-methyl-1,2,3,4-tetrahydroquinoline], the activity at 3 µM in experiment [1] amounted to 288%. In addition, the activity at 6 µM in experiment [2] amounted to 416%.

As to `CC(=O)N1c2ccccc2C(Nc2ccc(Oc3ccccc3)cc2)CC1C` (centres unmarked) [Compound 17, 1-acetyl-4-[(4-phenoxyphenyl)amino]-2-methyl-1,2,3,4-tetrahydroquinoline], in experiment [1], the activity at 3 µM stood at 172%. In addition, in experiment [2], the activity at 6 µM was 517%.

Regarding `CC(=O)N1c2ccccc2C(Nc2ccc(OC(C)C)cc2)CC1C` (stereo not drawn) [Compound 18, cis-1-acetyl-4-[(4-isopropoxyphenyl)amino]-2-methyl-1,2,3,4-tetrahydroquinoline.hydrochloride], in experiment [1], the activity at 3 µM was found to be 178%. Further, in experiment [2], the activity at 6 µM turned out to be 374%.

For `CC(=O)N1c2ccccc2C(Nc2ccc(N3CCOCC3)cc2)CC1C` (stereo not drawn) [Compound 19, cis-1-acetyl-2-methyl-4-[(4-morpholinophenyl)amino]-1,2,3,4-tetrahydroquinoline.hydrochloride], the activity at 3 µM in experiment [1] stood at 191%. The activity at 6 µM in experiment [2] amounted to 284%.

For `CC(=O)N1c2ccccc2C(Nc2ccc(N(C)C)cc2)CC1C` (centres unmarked) [Compound 20, 1-acetyl-4-[(4-N,N-dimethylaminophenyl)amino]-2-methyl-1,2,3,4-tetrahydroquinoline.2 hydrochloride], the activity at 3 µM in experiment [1] amounted to 174%. Also, the activity at 6 µM in experiment [2] came out at 117%.
